According to patent US20260373274A1, “PEPTIDE-LINKED DRUG DELIVERY SYSTEM” (priority 2022, published 2026):
“Also recorded” adds a separate entry of the source. Where a SMILES comes first, the peptide text is derived from it.

Experiments:
[1] = Hematology, complete blood count; type: in vivo, female BALB/c mice; settings: i.v. weekly for 3 weeks; DM1/DM1-Bdd 0.75 mg/kg, CIS 10 mg/kg
Description: (§1) Necropsy—Seven- to 9-week-old female BALB/c mice (n=4/group) were treated weekly with PBS, DM1, DM1-peptide (0.75 mg/kg of drug content), or cisplatin (10 mg/kg) via tail-vein injection (150 μL). At the end of a 3-week treatment, mice were euthanized. The organs/tissues were harvested, fixed in 10% neutral buffered formalin for 2 days. Bones were decalcified in a formic acid solution (Surgipath Decalcifier I; Leica Biosystems, Weltzar, Germany). The samples were then embedded in paraffin, sectioned (5 μm), and stained with H&E for examination by an ACVP board certified anatomic pathologist.
(§2) Hematology and biochemistry—Blood samples were collected via cardiac puncture. A complete blood count, including red blood cell, white blood cell, reticulocyte and platelet counts, with an automated differential leukocyte count, was performed using an IDEXX Procyte DX hematology analyzer (iDEXX, Westbrook. ME). Blood smears were prepared, stained with modified Wright's stain, examined in a blinded fashion by a board-certified veterinary clinical pathologist (T.S.), and imaged using a Nikon Eclipse TE2000-U fluorescent microscope equipped with a photometrics CoolSNAP HQ^2 camera (Nikon Corporation, Tokyo, Japan). The blood was also centrifuged (1,500×G) for 15 min to obtain the serum for biochemical analysis using a Beckman Coulter AU680 analyzer (Beckman Coulter, Brea, CA).

[2] = test system: major organs (liver, spleen, heart, lungs, and kidneys); test: Necropsy, histopathology of major organs; type: in vivo, female BALB/c mice; settings: i.v. weekly for 3 weeks; DM1/DM1-Bdd 0.75 mg/kg, CIS 10 mg/kg
From the text: as §1, with “At” for “Necropsy—Seven- to 9-week-old female BALB/c mice (n=4/group) were treated weekly with PBS, DM1, DM1-peptide (0.75 mg/kg of drug content), or cisplatin (10 mg/kg) via tail-vein injection (150 μL). At”

Serum biochemistry = type: in vivo, female BALB/c mice; settings: i.v. weekly for 3 weeks; DM1 0.75 mg/kg, CIS 10 mg/kg
From the text: as §1, with “At” for “Necropsy—Seven- to 9-week-old female BALB/c mice (n=4/group) were treated weekly with PBS, DM1, DM1-peptide (0.75 mg/kg of drug content), or cisplatin (10 mg/kg) via tail-vein injection (150 μL). At”
as §2

[3] = Fluorescence imaging of Cyanine5.5-labeled peptides (in vivo, ex vivo, urine); parameters: species or system Female SHO mice; settings: i.v.
From the text: The animals were then euthanized.

[4] = test system: orthotopic human UMUC-3 tumors; test: Therapeutic efficacy for treating BC, orthotopic UMUC-3/GFP-Luc xenograft; settings: 5 mg/kg weekly
From the text: These animals were immediately euthanized I week after the completion of the treatment schedule.
Slides were then counterstained with Hematoxylin.

[5] = test system: kidney injury molecule-1 (KIM-1) and neutrophil gelatinase-associated lipocalin (NGAL); test: Nephrotoxicity studies, urinary renal injury biomarkers by ELISA; type: in vivo, BALB/c mice; settings: single i.v. dose; 3 days
Description: The level of the acute renal injury biomarkers, neutrophil gelatinase-associated lipocalin (NGAL) and kidney injury molecule-1 (KIM-1) in the urine samples, were measured using ELISA assays according to the manufacturer's instructions (R&D Systems, Minneapolis, MN). […] All the animals (n=3/group) were euthanized at the end of the treatment and the kidneys were collected and fixed in 10% neutral buffered formalin. The tissues were then processed, embedded in paraffin, sectioned, and stained with H&E. Immunohistochemistry (IHC) for kidney injury (NGAL and KIM-I) was also performed.

[6] = μPET/CT imaging and biodistribution of ^89Zr-radiolabeled peptides; type: in vivo, BALB/c mice; settings: i.v.
Description: Radiochemistry—^89Zirconium (^89Zr) was supplied by 3DImaging LLC (Little Rock, AR). The ^89Zr-oxalate (500 μCi) was first neutralized with an equivalent volume of sodium carbonate solution (2 M), and then added to the DFO-peptides (0.2 mg, 250 μL). After incubation for 1.5 h at room temperature, the radiolabeled peptides (^89Zr-peptides) were purified by size exclusion chromatography using Sephadex G-25 gel to remove the free zirconium.
μPET/CT imaging and biodistribution study—BALB/c mice were intravenously injected with different ^89Zr-peptide analogues (20 μCi, 100 μL). μLPET/CT imaging was performed in animals with and without urine collection prior to the first imaging (n=4/analogue/condition). Whole-body images were acquired 1, 4, and 24 h after injection, using Inveon μPET/CT scanner (Siemens Medical Solutions, Malvern, PA). μPET/CT maximum energy projections were processed using Amide v1.0.4 and Inveon Research Workplace software. The radioactivities at different region of interest (ROI) were determined. […] The radioactivities of the harvested organs were measured using the Wallac Wizard 2 gamma counter. The results were corrected from radioactive decay, and were expressed as a percentage of the injected dose (% ID) or percentage of injected dose per gram of tissue (% ID/g).

In the case of `N.N.[Cl][Pt][Cl]` [CIS, cis-dichlorodiammine platinum(II)], the “red blood cell, leukocyte, or platelet counts or morphologic features” value [1] is reported as “thrombocytopenia and lymphopenia”, the “histopathology of liver, spleen, heart, lungs, or kidneys” value [2] is reported as “degeneration and necrosis of the proximal renal tubules, lung inflammation, and depletion of both erythrocytes and extramedullary hematopoiesis (EMH) in spleen” and the “muscle injury (CK activity)” value (Serum biochemistry) is reported as “induced muscle injury (CK activity)”.

For `CN1/C(=C/C=C/C=C/C2=[N+](CCCCCC(=O)NCCC(=O)N[C@@H](CCCCN)C(=O)N[C@@H](CC(=O)O)C(=O)NCCC(=O)N[C@@H](CCCCN)C(=O)N[C@@H](CC(=O)O)C(=O)NCCC(=O)N[C@@H](CCCCN)C(=O)N[C@@H](CC(=O)O)C(=O)NCCC(=O)N[C@@H](CCCCN)C(=O)N[C@@H](CC(=O)O)C(N)=O)c3ccc4ccccc4c3C2(C)C)C(C)(C)c2c1ccc1ccccc21` [Cy-BKD] (HELM PEPTIDE1{[CN1/C(=C/C=C/C=C/C2=[N+](CCCCCC(=O)[*:2])c3ccc4ccccc4c3C2(C)C)C(C)(C)c2c1ccc1ccccc21].[bAla].K.D.[bAla].K.D.[bAla].K.D.[bAla].K.D.[am]}$$$$V2.0), the main uptake organ [3] was “mainly taken up by the liver”.

In the case of `CN1/C(=C/C=C/C=C/C2=[N+](CCCCCC(=O)NCCC(=O)N[C@@H](CCCCN)C(=O)N[C@@H](CCCCN)C(=O)NCCC(=O)N[C@@H](CCCCN)C(=O)N[C@@H](CCCCN)C(=O)NCCC(=O)N[C@@H](CCCCN)C(=O)N[C@@H](CCCCN)C(=O)NCCC(=O)N[C@@H](CCCCN)C(=O)N[C@@H](CCCCN)C(N)=O)c3ccc4ccccc4c3C2(C)C)C(C)(C)c2c1ccc1ccccc21` [Cy-BKK] (HELM PEPTIDE1{[CN1/C(=C/C=C/C=C/C2=[N+](CCCCCC(=O)[*:2])c3ccc4ccccc4c3C2(C)C)C(C)(C)c2c1ccc1ccccc21].[bAla].K.K.[bAla].K.K.[bAla].K.K.[bAla].K.K.[am]}$$$$V2.0), the main uptake organ [3] is reported as “mainly taken up by the liver”.

With `COc1cccc2c1C(=O)c1c(O)c3c(c(O)c1C2=O)C[C@@](O)(C(=O)CO)C[C@@H]3O[C@H]1C[C@H](N)[C@H](O)[C@H](C)O1` [DOX, Doxorubicin, reference compound] the body weight [4] was “all the animals continuously losing weight” and the “life expectancy compared to the PBS control / mortality” value [4] was “shorter life expectancy compared to the PBS control; also recorded: died prior to receiving the final dose; also recorded: caused mortality”.

In the case of `Nc1ccn([C@@H]2O[C@H](CO)[C@@H](O)C2(F)F)c(=O)n1` [GEM, gemcitabine], the “induction of KIM-1 and/or NGAL, 3 days” value [5] is reported as “continued induction of KIM-1 and/or NGAL”.

With `CO[C@@]12[C@H](COC(N)=O)C3=C(C(=O)C(C)=C(N)C3=O)N1C[C@@H]1N[C@@H]12` [MIT, Mitomycin] the “induction of KIM-1 and/or NGAL, 3 days” value [5] was “continued induction of KIM-1 and/or NGAL”.

For `CC(=O)N(O)CCCCCNC(=O)CCC(=O)N(O)CCCCCNC(=O)CCC(=O)N(O)CCCCCNC(=S)Nc1ccc(NC(=S)NCCC(=O)N[C@@H](CCCCN)C(=O)N[C@@H](CCCCN)C(=O)NCCC(=O)N[C@@H](CCCCN)C(=O)N[C@@H](CCCCN)C(=O)NCCC(=O)N[C@@H](CCCCN)C(=O)N[C@@H](CCCCN)C(=O)NCCC(=O)N[C@@H](CCCCN)C(=O)N[C@@H](CCCCN)C(N)=O)cc1` [^89Zr-BKK, metal not drawn] (HELM PEPTIDE1{[CC(=O)N(O)CCCCCNC(=O)CCC(=O)N(O)CCCCCNC(=O)CCC(=O)N(O)CCCCCNC(=S)Nc1ccc(NC(=S)[*:2])cc1].[bAla].K.K.[bAla].K.K.[bAla].K.K.[bAla].K.K.[am]}$$$$V2.0), the organ distribution [6] was “delivered to the liver in addition to the URS”.

In the case of “Cyanine5.5 [free Cy, reference compound]”, the main uptake organ [3] is reported as “mainly taken up by the liver”.

For “NH2-(PEG3)DD-(PEG3)DD-(PEG3)DD-(PEG3)DD-CONH2 (SEQ ID NO:5) [PEG3DD]”, the “accumulation in kidneys over time” value [6] was “initial increase”.
